# Data as given in ChEMBL document CHEMBL2424528, “Novel tetrahydropyran analogs as dipeptidyl peptidase IV inhibitors: Profile of clinical candidate (2R,3S,5R)-2- (2,5-difluorophenyl)-5-(4,6-dihydropyrrolo [3,4-c]pyrazol-5-(1H)-yl)tetrahydro-2H-pyran-3-amine (23) [corrected]” (Bioorg Med Chem Lett, 2013).
# Active and inactive are the calls of the source. The rule behind the calls is not given here.
# Experiments:
# Dipeptidyl peptidase 8 = Dipeptidyl peptidase 8 (Homo sapiens, UniProt Q6V1X1); experiment: Inhibition of human DPP8
# Dipeptidyl peptidase 2 = Dipeptidyl peptidase 2 (Homo sapiens, UniProt Q9UHL4); experiment: Inhibition of QPP (unknown origin)
# Prolyl endopeptidase FAP = target: T1, Prolyl endopeptidase FAP (Homo sapiens, UniProt Q12884); experiment: Inhibition of human FAP
# T1 sequence (Q12884 whole entry): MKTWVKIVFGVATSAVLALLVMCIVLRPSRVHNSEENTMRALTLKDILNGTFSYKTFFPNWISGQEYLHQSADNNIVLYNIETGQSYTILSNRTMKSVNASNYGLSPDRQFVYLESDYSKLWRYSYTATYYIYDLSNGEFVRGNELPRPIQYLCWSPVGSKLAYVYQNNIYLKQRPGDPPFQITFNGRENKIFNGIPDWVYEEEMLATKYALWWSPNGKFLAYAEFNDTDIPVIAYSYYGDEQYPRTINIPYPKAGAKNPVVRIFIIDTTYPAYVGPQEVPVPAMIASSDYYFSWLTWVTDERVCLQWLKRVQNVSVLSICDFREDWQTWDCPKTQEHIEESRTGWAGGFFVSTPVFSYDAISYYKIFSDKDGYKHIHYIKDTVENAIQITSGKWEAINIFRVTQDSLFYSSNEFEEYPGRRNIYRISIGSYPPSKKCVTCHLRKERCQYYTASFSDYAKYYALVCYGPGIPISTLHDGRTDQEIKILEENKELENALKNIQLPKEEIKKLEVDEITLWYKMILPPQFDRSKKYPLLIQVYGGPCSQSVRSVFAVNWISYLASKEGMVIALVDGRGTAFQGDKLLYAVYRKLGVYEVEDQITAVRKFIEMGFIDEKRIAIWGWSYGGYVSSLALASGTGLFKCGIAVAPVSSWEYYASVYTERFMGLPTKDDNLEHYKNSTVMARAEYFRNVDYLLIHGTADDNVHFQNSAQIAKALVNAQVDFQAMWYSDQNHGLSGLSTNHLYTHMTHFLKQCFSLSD
# Canis familiaris [1] = experiment: Cardiotoxicity in dog model assessed as QTc prolongation up to 30 mg/kg; format: toxicity, organism-based, Canis lupus familiaris; set-up: dose 30 mg/kg; conditions: in vivo
# [2] = target: Voltage-gated inwardly rectifying potassium channel KCNH2 (Homo sapiens, UniProt Q12809); experiment: Inhibition of human ERG channel
# Mus musculus [3] = experiment: Antidiabetic activity in orally dosed lean mouse assessed as reduction in blood glucose excursion administered 1 hr prior to dextrose challenge by oral glucose tolerance test; format: functional, organism-based
# Mus musculus [4] = experiment: Induction in plasma GLP-1 level in lean mouse at 1 mg/kg; format: functional, organism-based; set-up: dose 1 mg/kg
# [5] = Cmax in rhesus monkey at 2 mg/kg, po; format: ADME, organism-based, Macaca mulatta; set-up: dose 2 mg/kg, route oral; conditions: in vivo
# [6] = Tmax in rhesus monkey at 1 mg/kg, iv and 2 mg/kg, po; format: ADME, organism-based, Macaca mulatta; conditions: in vivo
# Mus musculus [7] = species on record: Mus musculus; experiment: Induction in plasma GLP-1 level in lean mouse; format: functional, organism-based
# [8] = Plasma clearance in rhesus monkey at 1 mg/kg, iv and 2 mg/kg, po; format: ADME, organism-based, Macaca mulatta
# Rhesus monkey = experiment: Dose normalized AUC in rhesus monkey at 2 mg/kg, po; format: ADME, organism-based, Macaca mulatta; set-up: dose 2 mg/kg, route oral; conditions: in vivo
# [9] = Tmax in beagle dog at 1 mg/kg, iv and 2 mg/kg, po; format: ADME, organism-based, Canis lupus familiaris; conditions: in vivo
# Mus musculus [10] = experiment: In vivo inhibition of DPP4 in lean mouse model administered 10 mins prior to dextrose challenge; format: functional, organism-based
# [11] = Inhibition of cytochrome P450 (unknown origin); format: ADME; conditions: human
# Canis familiaris [12] = experiment: Dose normalized AUC in beagle dog at 2 mg/kg, po; format: ADME, organism-based, Canis lupus familiaris; set-up: dose 2 mg/kg, route oral; conditions: in vivo
# [13] = target: Voltage-dependent L-type calcium channel subunit alpha-1C (Homo sapiens, UniProt Q13936); experiment: Inhibition of Cav1.2 channel (unknown origin)
# Mus musculus [14] = experiment: Antidiabetic activity in lean mouse assessed as reduction in blood glucose AUC at 0.1 mg/kg, po administered 1 hr prior to dextrose challenge by oral glucose tolerance test; format: functional; set-up: scale not given: the % may be the effect or the level left
# Rattus norvegicus = experiment: Dose normalized AUC in rat at 2 mg/kg, po; format: ADME, organism-based; set-up: dose 2 mg/kg, route oral; conditions: in vivo
# [15] = Oral bioavailability in rhesus monkey at 2 mg/kg; format: ADME, organism-based, Macaca mulatta; conditions: in vivo
# [16] = Volume of distribution at steady state in beagle dog at 1 mg/kg, iv and 2 mg/kg, po; format: ADME, organism-based, Canis lupus familiaris; conditions: in vivo, read-out: Vdss
# [17] = Volume of distribution at steady state in rat at 1 mg/kg, iv and 2 mg/kg, po; format: ADME, organism-based; conditions: in vivo, read-out: Vdss
# [18] = Cmax in rat at 2 mg/kg, po; format: ADME, organism-based; set-up: dose 2 mg/kg, route oral; conditions: in vivo
# Mus musculus [19] = experiment: In vivo inhibition of DPP4 in lean mouse model at 0.3 mg/kg administered 10 mins prior to dextrose challenge; format: functional; set-up: scale not given: the % may be the effect or the level left
# [20] = Plasma clearance in beagle dog at 1 mg/kg, iv and 2 mg/kg, po; format: ADME, organism-based, Canis lupus familiaris
# [21] = Cmax in beagle dog at 2 mg/kg, po; format: ADME, organism-based, Canis lupus familiaris; set-up: dose 2 mg/kg, route oral; conditions: in vivo
# Mus musculus [22] = experiment: Antidiabetic activity in wild type lean mouse assessed as inhibition of blood glucose excursion at 3 mg/kg administered 1 hr prior to dextrose challenge by oral glucose tolerance test; format: functional
# [23] = Plasma concentration in lean mouse at 0.3 mg/kg administered 10 mins prior to dextrose challenge; format: ADME, organism-based; set-up: dose 0.3 mg/kg
# Mus musculus [24] = experiment: Antidiabetic activity in DPP-4i-deficient lean mouse assessed as inhibition of blood glucose excursion at 3 mg/kg administered 1 hr prior to dextrose challenge by oral glucose tolerance test relative to control; format: functional, organism-based; set-up: dose 3 mg/kg
# [25] = Volume of distribution at steady state in rhesus monkey at 1 mg/kg, iv and 2 mg/kg, po; format: ADME, organism-based, Macaca mulatta; conditions: in vivo, read-out: Vdss
# [26] = Terminal half life in rat at 1 mg/kg, iv and 2 mg/kg, po; format: ADME, organism-based; conditions: in vivo, read-out: beta t1/2 (converted)
# Mus musculus [27] = experiment: Antidiabetic activity in lean mouse assessed as reduction in blood glucose AUC at 3 mg/kg, po administered 1 hr prior to dextrose challenge by oral glucose tolerance test; format: functional; set-up: scale not given: the % may be the effect or the level left
# [28] = Plasma clearance in rat at 1 mg/kg, iv and 2 mg/kg, po; format: ADME, organism-based
# [29] = Terminal half life in rhesus monkey at 1 mg/kg, iv and 2 mg/kg, po; format: ADME, organism-based, Macaca mulatta; conditions: in vivo, read-out: beta t1/2 (converted)
# [30] = Tmax in rat at 1 mg/kg, iv and 2 mg/kg, po; format: ADME, organism-based; conditions: in vivo
# [31] = Oral bioavailability in rat at 2 mg/kg; format: ADME, organism-based; conditions: in vivo
# [32] = Terminal half life in beagle dog at 1 mg/kg, iv and 2 mg/kg, po; format: ADME, organism-based, Canis lupus familiaris; conditions: in vivo, read-out: beta t1/2 (converted)
# [33] = Oral bioavailability in beagle dog at 2 mg/kg; format: ADME, organism-based, Canis lupus familiaris; conditions: in vivo
# Canis familiaris [34] = experiment: Cardiotoxicity in cardiovascular dog model assessed as QTc prolongation at 3 mg/kg; format: toxicity, organism-based, Canis lupus familiaris, Heart; set-up: dose 3 mg/kg; conditions: in vivo
# [35] = Dissociation constant, pKa of the compound; format: physicochemical
# Chain of Dipeptidyl peptidase 8 (Q6V1X1 whole entry): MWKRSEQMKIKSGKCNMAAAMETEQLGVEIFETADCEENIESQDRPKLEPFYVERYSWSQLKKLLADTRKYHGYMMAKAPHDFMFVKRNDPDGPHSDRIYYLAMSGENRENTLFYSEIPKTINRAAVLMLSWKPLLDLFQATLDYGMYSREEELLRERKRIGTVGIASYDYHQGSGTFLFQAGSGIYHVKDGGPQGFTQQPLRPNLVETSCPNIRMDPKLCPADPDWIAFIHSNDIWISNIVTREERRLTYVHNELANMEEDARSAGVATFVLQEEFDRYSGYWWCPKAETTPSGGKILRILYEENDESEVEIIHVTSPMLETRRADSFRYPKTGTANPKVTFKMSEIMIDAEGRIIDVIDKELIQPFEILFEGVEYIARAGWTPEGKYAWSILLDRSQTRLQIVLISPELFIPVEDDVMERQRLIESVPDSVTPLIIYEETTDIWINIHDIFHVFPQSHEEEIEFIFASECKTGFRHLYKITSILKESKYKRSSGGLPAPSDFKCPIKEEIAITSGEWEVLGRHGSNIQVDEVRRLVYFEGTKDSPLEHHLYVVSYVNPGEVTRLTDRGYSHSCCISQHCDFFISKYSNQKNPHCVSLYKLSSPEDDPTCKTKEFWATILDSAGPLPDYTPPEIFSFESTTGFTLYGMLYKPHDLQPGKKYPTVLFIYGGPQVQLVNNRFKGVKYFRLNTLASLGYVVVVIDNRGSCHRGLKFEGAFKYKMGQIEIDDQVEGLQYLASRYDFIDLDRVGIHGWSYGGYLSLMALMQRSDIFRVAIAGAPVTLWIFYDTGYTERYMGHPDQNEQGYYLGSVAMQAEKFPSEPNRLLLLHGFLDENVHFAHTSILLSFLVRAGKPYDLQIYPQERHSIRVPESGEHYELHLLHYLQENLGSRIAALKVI
# Chain of Voltage-gated inwardly rectifying potassium channel KCNH2 (Q12809 whole entry): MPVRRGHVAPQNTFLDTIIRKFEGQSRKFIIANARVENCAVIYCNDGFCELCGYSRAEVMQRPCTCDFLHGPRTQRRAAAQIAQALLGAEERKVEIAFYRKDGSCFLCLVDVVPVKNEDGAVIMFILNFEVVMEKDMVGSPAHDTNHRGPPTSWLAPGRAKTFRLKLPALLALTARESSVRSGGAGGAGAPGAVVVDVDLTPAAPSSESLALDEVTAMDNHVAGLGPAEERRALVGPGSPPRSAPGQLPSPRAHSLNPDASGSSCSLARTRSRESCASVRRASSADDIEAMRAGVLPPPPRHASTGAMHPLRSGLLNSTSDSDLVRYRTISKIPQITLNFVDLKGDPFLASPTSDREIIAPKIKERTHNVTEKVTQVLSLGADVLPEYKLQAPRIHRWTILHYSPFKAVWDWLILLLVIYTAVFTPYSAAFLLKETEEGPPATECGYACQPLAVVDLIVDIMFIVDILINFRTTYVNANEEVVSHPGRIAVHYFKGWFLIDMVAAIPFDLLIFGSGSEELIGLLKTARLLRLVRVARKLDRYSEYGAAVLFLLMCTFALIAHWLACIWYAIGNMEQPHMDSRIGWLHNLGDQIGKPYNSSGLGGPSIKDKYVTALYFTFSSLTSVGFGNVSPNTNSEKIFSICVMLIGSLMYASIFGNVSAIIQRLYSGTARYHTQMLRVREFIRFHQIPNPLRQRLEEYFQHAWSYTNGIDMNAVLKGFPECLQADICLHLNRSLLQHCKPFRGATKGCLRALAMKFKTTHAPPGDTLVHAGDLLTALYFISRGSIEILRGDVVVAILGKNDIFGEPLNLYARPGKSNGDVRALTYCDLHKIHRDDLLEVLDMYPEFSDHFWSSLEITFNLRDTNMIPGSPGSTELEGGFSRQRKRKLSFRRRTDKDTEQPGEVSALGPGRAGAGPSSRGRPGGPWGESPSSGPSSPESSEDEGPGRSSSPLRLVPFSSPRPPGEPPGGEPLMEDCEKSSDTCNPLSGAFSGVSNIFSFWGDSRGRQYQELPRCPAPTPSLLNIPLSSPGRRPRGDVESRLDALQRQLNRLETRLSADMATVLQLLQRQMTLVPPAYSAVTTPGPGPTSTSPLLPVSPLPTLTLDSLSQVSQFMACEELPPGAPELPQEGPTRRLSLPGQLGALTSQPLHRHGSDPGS
# Chain of Voltage-dependent L-type calcium channel subunit alpha-1C (Q13936 whole entry): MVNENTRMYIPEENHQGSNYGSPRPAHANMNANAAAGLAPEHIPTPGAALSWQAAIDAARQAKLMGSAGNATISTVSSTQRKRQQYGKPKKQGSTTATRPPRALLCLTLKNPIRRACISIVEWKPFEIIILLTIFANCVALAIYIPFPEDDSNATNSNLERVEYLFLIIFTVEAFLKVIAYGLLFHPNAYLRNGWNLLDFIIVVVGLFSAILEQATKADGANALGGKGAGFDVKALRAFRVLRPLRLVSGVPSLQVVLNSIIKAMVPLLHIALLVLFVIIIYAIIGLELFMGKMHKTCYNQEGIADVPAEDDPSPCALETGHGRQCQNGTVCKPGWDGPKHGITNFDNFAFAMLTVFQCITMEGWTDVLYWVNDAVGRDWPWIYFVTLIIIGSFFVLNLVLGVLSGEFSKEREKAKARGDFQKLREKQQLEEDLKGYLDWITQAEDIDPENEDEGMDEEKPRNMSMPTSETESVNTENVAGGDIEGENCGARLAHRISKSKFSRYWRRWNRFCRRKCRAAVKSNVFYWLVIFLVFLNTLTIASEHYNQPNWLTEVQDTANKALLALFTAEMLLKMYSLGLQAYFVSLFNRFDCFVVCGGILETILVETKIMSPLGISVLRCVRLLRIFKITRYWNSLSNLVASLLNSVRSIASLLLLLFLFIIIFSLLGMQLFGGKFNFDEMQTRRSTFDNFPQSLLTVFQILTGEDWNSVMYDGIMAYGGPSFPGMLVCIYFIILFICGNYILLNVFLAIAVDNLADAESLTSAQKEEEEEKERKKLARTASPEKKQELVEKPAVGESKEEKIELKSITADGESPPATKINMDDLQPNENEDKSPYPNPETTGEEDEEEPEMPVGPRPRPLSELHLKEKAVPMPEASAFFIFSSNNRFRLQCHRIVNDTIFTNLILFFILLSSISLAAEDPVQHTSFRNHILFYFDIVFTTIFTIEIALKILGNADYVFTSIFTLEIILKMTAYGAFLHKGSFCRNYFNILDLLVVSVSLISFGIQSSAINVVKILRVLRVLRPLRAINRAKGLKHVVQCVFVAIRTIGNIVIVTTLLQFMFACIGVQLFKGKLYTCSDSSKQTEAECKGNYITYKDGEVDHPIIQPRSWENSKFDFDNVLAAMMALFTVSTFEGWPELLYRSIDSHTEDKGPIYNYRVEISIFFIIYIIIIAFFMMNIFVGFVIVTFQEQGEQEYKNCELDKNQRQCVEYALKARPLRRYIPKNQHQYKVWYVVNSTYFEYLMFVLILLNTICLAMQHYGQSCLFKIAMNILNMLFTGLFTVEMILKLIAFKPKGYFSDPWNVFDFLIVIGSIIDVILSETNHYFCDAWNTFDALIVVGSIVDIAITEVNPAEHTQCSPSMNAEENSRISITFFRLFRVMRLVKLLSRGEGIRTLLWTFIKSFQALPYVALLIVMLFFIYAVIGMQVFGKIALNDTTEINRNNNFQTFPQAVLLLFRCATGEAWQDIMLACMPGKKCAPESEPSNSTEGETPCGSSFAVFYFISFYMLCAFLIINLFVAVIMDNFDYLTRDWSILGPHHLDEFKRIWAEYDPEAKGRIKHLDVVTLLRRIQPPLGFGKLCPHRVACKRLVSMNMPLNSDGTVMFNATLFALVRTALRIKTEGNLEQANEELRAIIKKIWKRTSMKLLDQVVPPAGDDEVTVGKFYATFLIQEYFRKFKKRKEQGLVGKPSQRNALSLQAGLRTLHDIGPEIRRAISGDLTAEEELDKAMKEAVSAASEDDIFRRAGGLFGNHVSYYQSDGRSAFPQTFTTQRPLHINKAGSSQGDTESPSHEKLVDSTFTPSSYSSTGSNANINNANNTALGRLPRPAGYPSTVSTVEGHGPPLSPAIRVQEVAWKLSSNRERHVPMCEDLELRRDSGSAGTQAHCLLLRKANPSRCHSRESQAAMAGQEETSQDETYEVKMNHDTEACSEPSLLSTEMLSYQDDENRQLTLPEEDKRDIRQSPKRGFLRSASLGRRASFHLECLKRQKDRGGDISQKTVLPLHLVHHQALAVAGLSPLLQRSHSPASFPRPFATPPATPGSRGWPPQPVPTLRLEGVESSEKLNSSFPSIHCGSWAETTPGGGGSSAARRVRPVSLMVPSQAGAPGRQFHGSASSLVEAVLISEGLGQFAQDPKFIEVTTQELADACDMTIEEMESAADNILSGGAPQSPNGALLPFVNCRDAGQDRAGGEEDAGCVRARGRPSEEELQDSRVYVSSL
smiles,measurement,setting,value
N[C@H]1C[C@@H](N2Cc3ccccc3C2=O)CO[C@@H]1c1cc(F)ccc1F,IC50,Dipeptidyl peptidase 8,> 100 µM
same,IC50,Dipeptidyl peptidase 2,> 100 µM
same,IC50,Prolyl endopeptidase FAP,> 100 µM
N[C@H]1C[C@@H](N2Cc3cn[nH]c3C2)CO[C@@H]1c1ccc(F)cc1F,IC50,Dipeptidyl peptidase 8,> 100 µM
same,IC50,Prolyl endopeptidase FAP,> 100 µM
N[C@H]1C[C@@H](N2Cc3cnc(C4CC4)nc3C2)CO[C@@H]1c1cc(F)c(F)cc1F,Activity,Canis familiaris [1],Non-toxic
same,IC50,[2],> 30 µM
N[C@@H](CC(=O)N1CCn2c(nnc2C(F)(F)F)C1)Cc1cc(F)c(F)cc1F,Activity,Mus musculus [3],Active
N[C@H]1C[C@@H](N2Cc3cn[nH]c3C2)CO[C@@H]1c1ccccc1Cl,IC50,Dipeptidyl peptidase 8,> 100 µM
same,IC50,Dipeptidyl peptidase 2,> 100 µM
same,IC50,Prolyl endopeptidase FAP,> 100 µM
N[C@H]1C[C@@H](N2Cc3cn[nH]c3C2)CO[C@@H]1c1cc(F)ccc1Cl,IC50,Dipeptidyl peptidase 2,> 100 µM
same,IC50,Prolyl endopeptidase FAP,> 100 µM
N[C@H]1C[C@@H](N2Cc3ccccc3O2)CO[C@@H]1c1cc(F)ccc1F,IC50,Prolyl endopeptidase FAP,> 100 µM
N[C@H]1C[C@@H](N2Cc3cn[nH]c3C2)CO[C@@H]1c1cc(F)c(Cl)cc1F,IC50,Dipeptidyl peptidase 8,> 100 µM
same,IC50,Prolyl endopeptidase FAP,> 100 µM
N[C@H]1C[C@@H](N2Cc3cn[nH]c3C2)CO[C@@H]1c1cc(F)ccc1F,Activity,Mus musculus [4],Active
same,Cmax,[5],1480 nM
same,Tmax,[6],1.1 h
same,Activity,Mus musculus [7],Dose-dependent effect
same,clearance,[8],5.2 mL/min/kg
same,AUC/dose,Rhesus monkey,7.33 µM·h/mg/kg
same,Tmax,[9],3.5 h
same,Activity,Mus musculus [10],Dose-dependent effect
same,inhibition (INH),[11],Not Active
same,AUC/dose,Canis familiaris [12],16.1 µM·h/mg/kg
same,inhibition (INH),[13],Not Active
same,Activity,Mus musculus [14],27%
same,AUC/dose,Rattus norvegicus,3.72 µM·h/mg/kg
same,bioavailability,[15],72%
same,Vd,[16],3 L/kg
same,Vd,[17],4.9 L/kg
same,Cmax,[18],800 nM
same,Activity,Mus musculus [19],>80%
same,clearance,[20],2.7 mL/min/kg
same,Cmax,[21],1920 nM
same,inhibition in vivo at 3 mg/kg,Mus musculus [22],53%
same,concentration at 10 min,[23],260 nM
same,inhibition,Mus musculus [24],inactive
same,Activity,Mus musculus [3],Dose-dependent effect
same,inhibition (INH),[2]; human,Not Active
same,Vd,[25],4.2 L/kg
same,half-life,[26],6.3 h
same,Activity,Mus musculus [27],47%
same,clearance,[28],9.7 mL/min/kg
same,half-life,[29],9.7 h
same,Tmax,[30],0.5 h
same,bioavailability,[31],70%
same,half-life,[32],13 h
same,bioavailability,[33],83%
N[C@H]1C[C@@H](N2Cc3cn[nH]c3C2)CO[C@@H]1c1cc(F)c(F)cc1F,IC50,Dipeptidyl peptidase 8,> 100 µM
same,IC50,Prolyl endopeptidase FAP,> 6.4 µM
N[C@H]1C[C@@H](N2CCn3c(nnc3C(F)(F)F)C2)CO[C@@H]1c1cc(F)ccc1F,IC50,Dipeptidyl peptidase 8,> 100 µM
same,IC50,Dipeptidyl peptidase 2,> 100 µM
same,IC50,Prolyl endopeptidase FAP,> 100 µM
CC1(C)c2cnc(C3CC3)nc2CN1[C@H]1CO[C@H](c2cc(F)ccc2F)[C@@H](N)C1,IC50,Dipeptidyl peptidase 8,> 100 µM
same,IC50,Prolyl endopeptidase FAP,> 100 µM
Cc1nc2c(o1)CN([C@H]1CO[C@H](c3cc(F)ccc3F)[C@@H](N)C1)C2,IC50,Dipeptidyl peptidase 8,> 100 µM
same,IC50,Dipeptidyl peptidase 2,> 100 µM
same,IC50,Prolyl endopeptidase FAP,> 100 µM
N[C@H]1C[C@@H](N2Cc3nc(C(F)(F)F)[nH]c3C2)CO[C@@H]1c1cc(F)ccc1F,IC50,Dipeptidyl peptidase 2,> 100 µM
same,IC50,Prolyl endopeptidase FAP,> 100 µM
N[C@H]1C[C@@H](N2Cc3cnc(C(F)(F)F)nc3C2)CC[C@@H]1c1cc(F)c(F)cc1F,Activity,Canis familiaris [34],> 5%
same,IC50,[2],4.8 µM
same,pKa,[35],8.6
CC1(C)c2nc(C3CC3)ncc2CN1[C@H]1CO[C@H](c2cc(F)ccc2F)[C@@H](N)C1,IC50,Dipeptidyl peptidase 8,> 100 µM
N[C@H]1C[C@@H](N2Cc3cnc(C(F)(F)F)nc3C2)CO[C@@H]1c1cc(F)c(F)cc1F,Activity,Canis familiaris [1],Non-toxic
same,pKa,[35],7.3
